{"source": "patent US20070243217A1", "about": "“Film-Shaped Medicament for Oral Administration Containing Estriol” (HF Arzneimittelforschung GmbH, priority 2004, published 2007)", "key": {"[1]": {"assay": "Changes of the oral mucosa on buccal or sublingual administration of estriol", "assay_type": "in vivo"}, "[2]": {"assay": "Estriol levels in the blood over time with the same treatment and dose", "assay_type": "in vivo", "settings": "vaginal application", "protocol": "Thus, even in the case of long-term use, there should be no unwanted absorption conditions at the oral mucosa as the application site that show a change for the worse, provided that the treatment of the climacteric complaints is carried out using a film-shaped medicament according to the invention."}}}
{"compound": "C[C@]12CC[C@@H]3c4ccc(O)cc4CC[C@H]3[C@@H]1C[C@@H](O)[C@@H]2O", "note": "[estriol, (16α, 17β)-estra-1,3,5(10)-triene-3,16,17-triol]", "values": [{"measurement": "changes of the oral mucosa analogous to proliferation and hornification of the upper cell layers in the vagina", "setting": "[1]", "value": "no changes of the oral mucosa"}, {"measurement": "estriol levels in the blood after some time", "setting": "[2]", "value": "drop measurably after some time"}]}
